pKi: −log10 of the molar value. Where a name gives a salt, the structure may show the parent alone. Some results are limits rather than exact numbers.

We go through 27 compounds from patent US9745328B2, “Flap modulators” (JANSSEN PHARMACEUTICA NV, priority 2013, dated 2017).

Chain of human FLAP (P20292 whole entry): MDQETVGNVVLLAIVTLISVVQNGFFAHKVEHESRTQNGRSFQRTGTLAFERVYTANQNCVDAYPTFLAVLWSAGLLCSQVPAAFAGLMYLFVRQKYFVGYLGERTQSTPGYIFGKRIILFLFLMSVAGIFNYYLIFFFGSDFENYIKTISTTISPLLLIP

One test concerns the target human FLAP (Homo sapiens (Human), UniProt P20292). The test is described as follows: FLAP binding assay (HTRF format). Particulars: Table 6 (additional runs), human FLAP wild type. The procedure:
The ability of the compounds of the present invention to treat a FLAP-mediated disease and/or disorder, or associated symptoms or complications thereof, was determined using the following procedures. Binding assay data represent the average value obtained from two different assay plates, with samples run in duplicate on each plate. Human whole blood assay data represent a single replicate on an assay plate using whole blood from at least one healthy donor.
Data are expressed as a HTRF ratio.
A general note: In TR-FRET formats the signal depends on donor and acceptor labels being close together.
Consider `Nc1ncc(-c2ccc(-c3ccccc3S(=O)(=O)N[C@@H]3CCCNC3=O)cc2F)cn1` [Example 266, 4′-(2-Aminopyrimidin-5-yl)-3′-fluoro-N-[(3R)-2-oxopiperidin-3-yl]biphenyl-2-sulfonamide trifluoroacetic acid salt], for which the pKi is 6.88.

As to `Nc1cnc(-c2ccc(-c3ccccc3CSc3ccc(N)nn3)cc2F)cn1` [Example 240, 6-(((4′-(5-aminopyrazin-2-yl)-3′-fluoro-[1,1′-biphenyl]-2-yl)methyl)thio)pyridazin-3-amine hydrochloride], the pKi is 8.62.

In turn, `CC(C)(NS(=O)(=O)c1ccccc1-c1ccc(-c2cnc(N)cn2)c(F)c1)C(F)(F)F` [Example 13, 4′-(5-4minopyrazin-2-yl)-3′-fluoro-N-(2,2,2-trifluoro-1,1-dimethylethyl)biphenyl-2-sulfonamide] showed a pKi of 8.92.

Compound `Nc1cnc(-c2ccc(-c3ccccc3S(=O)(=O)N[C@@H](CO)[C@@H](O)c3ccccc3)cc2F)cn1` [Example 78, 4′-(5-Aminopyrazin-2-yl)-3′-fluoro-N-[(1S,2S)-2-hydroxy-1-(hydroxymethyl)-2-phenylethyl]biphenyl-2-sulfonamide] showed a pKi of 9.15.

`C[C@@H](O)CNS(=O)(=O)c1ccccc1-c1ccc(-c2cnc(N)cn2)c(F)c1` [Example 97, (R)-4′-(5-aminopyrazin-2-yl)-3′-fluoro-N-(2-hydroxypropyl)-[1,1′-biphenyl]-2-sulfonamide] had a pKi of 8.18.

The compound `CCNS(=O)(=O)c1ccccc1-c1ccc(-c2cnc(N)nc2)c(F)c1` [Example 295, 4′-(2-Aminopyrimidin-5-yl)-N-ethyl-3′-fluorobiphenyl-2-sulfonamide trifluoroacetic acid salt] showed a pKi of 7.70.

The compound `CC(C)(C)S(=O)(=O)c1ccccc1-c1ccc(-c2cnc(N)cn2)c(F)c1` [Example 194, 5-[2′-(tert-Butylsulfonyl)-3-fluorobiphenyl-4-yl]pyrazin-2-amine] showed a pKi of 6.81.

For the compound `Nc1ncc(-c2ccc(-c3ccccc3S(=O)(=O)N[C@H]3CCCC[C@H]3O)cc2F)cn1` (racemic) [Example 259, racemic (cis) 4′-(2-Aminopyrimidin-5-yl)-3′-fluoro-N-[(cis)-2-hydroxycyclohexyl]biphenyl-2-sulfonamide], the pKi was 8.11.

In the case of `Nc1cnc(-c2ccc(-c3ccccc3S(=O)(=O)N(CCO)C3CCCCC3)cc2F)cn1` [Example 136, 4′-(5-Aminopyrazin-2-yl)-N-cyclohexyl-3′-fluoro-N-(2-hydroxyethyl)biphenyl-2-sulfonamide], the pKi was 9.30.

With `Nc1cnc(-c2ccc(-c3ccccc3S(=O)(=O)N3CCC(N)CC3)cc2F)cn1` [Example 65, 5-{2′-[(4-Aminopiperidin-1-yl)sulfonyl]-3-fluorobiphenyl-4-yl}pyrazin-2-amine], the pKi was 7.20.

In the case of `CCNS(=O)(=O)c1cc(C(F)(F)F)ccc1-c1ccc(-c2cnc(N)nc2)c(F)c1` [Example 327], the pKi is 8.74.

As for `CC(C)[C@@H](CO)NS(=O)(=O)c1ccccc1-c1ccc(-c2cnc(N)cn2)c(F)c1` [Example 148, (S)-4′-(5-aminopyrazin-2-yl)-3′-fluoro-N-(1-hydroxy-3-methylbutan-2-yl)-[1,1′-biphenyl]-2-sulfonamide], the pKi is 8.60.

`Nc1cnc(-c2ccc(-c3ccccc3Sc3cc(N)ncn3)cc2F)cn1` [Example 215, 6-{[4′-(5-Aminopyrazin-2-yl)-3′-fluorobiphenyl-2-yl]sulfanyl}pyrimidin-4-amine hydrochloride]: the pKi was 8.62.

For the compound `CC(C)(CO)CNS(=O)(=O)c1ccccc1-c1ccc(-c2cnc(N)nc2)c(F)c1` [Example 251, 4′-(2-Aminopyrimidin-5-yl)-3′-fluoro-N-(3-hydroxy-2,2-dimethylpropyl)biphenyl-2-sulfonamide], the pKi is 8.35.

In turn, `N#CCCNS(=O)(=O)c1ccccc1-c1ccc(-c2cnc(N)cn2)c(F)c1` [Example 169, 4′-(5-Aminopyrazin-2-yl)-N-(2-cyanoethyl)-3′-fluorobiphenyl-2-sulfanamide] had a pKi of 8.54.

Regarding `Nc1cnc(-c2ccc(-c3ccccc3CSc3ccncn3)cc2F)cn1` [Example 243, 5-(3-fluoro-2′-((pyrimidin-4-ylthio)methyl)-[1,1′-biphenyl]-4-yl)pyrazin-2-amine hydrochloride], the pKi is 8.48.

`Nc1cnc(-c2ccc(-c3ccccc3S(=O)(=O)N3c4ccccc4C[C@H]3CO)cc2F)cn1` [Example 135, (S)-(1-{[4′-(5-Aminopyrazin-2-yl)-3′-fluorobiphenyl-2-yl]sulfonyl}-2,3-dihydro-1H-indol-2-yl)methanol] gave a pKi of 9.40.

In the case of `C[C@@H](CO)NS(=O)(=O)c1ccccc1-c1ccc(-c2cnc3c(c2)OCCN3)c(F)c1` [Example 388, 4′-(3,4-Dihydro-2H-pyrido[3,2-b]l[1,4]oxazin-7-yl)-3′-fluoro-N-[(1S)-2-hydroxy-1-methylethyl]biphenyl-2-sulfonamide], the pKi is 8.77.

`Cc1cccc(-c2ccc(-c3cnc(N)nc3)c(F)c2)c1S(=O)(=O)NC(C)(C)C` [Example 287, 4′-(2-Aminopyrimidin-5-yl)-N-tert-butyl-3′-fluoro-3-methylbiphenyl-2-sulfonamide trifluoroacetic acid salt] gave a pKi of 8.07.

On to `CC(C)(CO)NS(=O)(=O)c1ccccc1-c1ccc(-c2cnc(N)cn2)c(F)c1` [Example 100, 4′-(5-Aminopyrazin-2-yl)-3′-fluoro-N-(2-hydroxy-1,1-dimethylethyl)biphenyl-2-sulfonamide], for which the pKi is 9.10.

The test is the same for the next values; noted with them: human FLAP wild type, Table 6 (additional runs).
In the case of `Nc1cnc(-c2ccc(-c3ccccc3S(N)(=O)=O)c(F)c2F)cn1` [Example 464, 4′-(5-Aminopyrazin-2-yl)-2′,3′-difluorobiphenyl-2-sulfonamide], the negative-log Ki (pKi) was 6.92.

Turning to `Nc1nccc(Oc2ccccc2-c2ccc(-c3cnc4[nH]ccc4c3)c(F)c2)n1` [Example 523, 4-{[3′-Fluoro-4′-(1H-pyrrolo[2,3-b]pyridin-5-yl)biphenyl-2-yl]oxy}pyrimidin-2-amine], the pKi is 8.89.

`Nc1cnc(-c2ccc(-c3cccnc3OC3CCS(=O)(=O)CC3)cc2F)cn1` [Example 647, 5-(4-{2-[(1,1-Dioxidotetrahydro-2H-thiopyran4-yl)oxy]pyridin-3-yl}-2-fluorophenyl)pyrazin-2-amine] had a pKi of 6.64.

In the case of `CC(C)(C)NS(=O)(=O)c1ccccc1-c1ccc(-c2cnc(N)c(F)c2)c(F)c1` [Example 430, 4′-(6-Amino-5-fluoropyridin-3-yl)-N-tert-butyl-3′-fluorobiphenyl-2-sulfonamide], the pKi was 8.29.

`CC(C)(C)NS(=O)(=O)c1ccccc1-c1ccc(-c2cnc3cc[nH]c3c2)c(F)c1` [Example 425, N-tert-Butyl-3′-fluoro-4′-(1H-pyrrolo[3,2-b]pyridin-6-yl)biphenyl-2-sulfonamide] showed a pKi of 8.64.

Compound `CC(C)(C)NS(=O)(=O)c1ccccc1-c1ccc(-c2cnc(N)cn2)cc1F` [Example 574, 4′-(5-Aminopyrazin-2-yl)-N-tert-butyl-2′-fluorobiphenyl-sultonamide] showed a pKi of 7.86.

The compound `Nc1cnc(-c2ccc(-c3ccc(C(F)(F)F)cc3Oc3ncccn3)cc2F)cn1` [Example 551, 5-[3-Fluoro-2′-(pyrimidin-2-yloxy)-4′-(trifluoromethyl)biphenyl-4-yl]pyrazin-2-amine] showed a pKi of 9.40.

Staying with this test, now noted: human FLAP wild type, a calculated value of 0.000 indicates Ki less than 1 nM.
As for `Nc1cnc(-c2ccc(-c3ccccc3S(=O)(=O)N3c4ccccc4C[C@H]3CO)cc2F)cn1` [Example 135, (S)-(1-{[4′-(5-Aminopyrazin-2-yl)-3′-fluorobiphenyl-2-yl]sulfonyl}-2,3-dihydro-1H-indol-2-yl)methanol], the pKi is above 9.00.

Turning to `Nc1cnc(-c2ccc(-c3ccc(C(F)(F)F)cc3Oc3ncccn3)cc2F)cn1` [Example 551, 5-[3-Fluoro-2′-(pyrimidin-2-yloxy)-4′-(trifluoromethyl)biphenyl-4-yl]pyrazin-2-amine], the pKi is above 9.00.

One may read the pKi as the Ki on a negative log10 scale, so that one unit is a factor of ten.
